Assay results from patent US20230201382A1, “RADIOLIGANDS FOR MYELIN” (CASE WESTERN RESERVE UNIVERSITY, priority 2016, published 2023).

Columns and labels:
[1] = tested on: myelin; assay: In situ staining after tail vein injection (Example 2); type: in vivo, mouse; details: 1.0 mg (50 mg/kg) tail vein, WT mice, 1 h
Method: Wild-type mice were administered the newly synthesized compounds (40 mg/kg) via tail vein injection, and 30-60 min later the mice were perfused transcardially with saline followed by 4% PFA in PBS. Brains and spinal cords were then removed, postfixed by immersion in 4% PFA overnight, dehydrated in 30% sucrose solution, cryostat sectioned at 100 μm, mounted on superfrost slides, and images were acquired directly using a Leica fluorescent microscope.
Following the in vitro studies, we then investigated the ability of compound 21 to readily enter the brain and bind to myelin in situ. A dose of 1.0 mg of compound 21 (50 mg/kg) was administered via the tail vein to wild-type (WT) mice. One hour after injection, the mice were perfused with saline followed by 4% paraformaldehyde (PFA) and the brain and spinal cord were removed and sectioned. The distribution of compound 21 was then directly examined under a fluorescent microscope.

[2] = tested on: myelin; assay: In vitro detection of focal demyelination, LPC rat model; type: binding; details: LPC-induced focal demyelination, rat brain sections
Method: Sprague-Dawley female rats (220-250 g, 8 weeks old) were anesthetized and positioned in a stereotaxic frame (Stoelting). A small incision was made in the scalp, and the corpus callosum was targeted using the following stereotaxic coordinates, relative to bregma: anterior-posterior, 0.0 mm; medial-lateral, 2.0 mm; and dorsal-ventral, 3.4 mm. A small hole was drilled in the skull, and a 26S-gauge needle attached to a 10 μL Hamilton Syringe was lowered into the corpus callosum according to the dorsal-ventral coordinate. A microinjector pump (Stoelting) controlled the infusion of 6 μL of lysolecithin (LPC, 0.1% in saline) at a rate of 0.25 μL/min, after which the needle was left in place for 2 min in order to prevent liquid reflux out of the brain parenchyma. The incision was then closed using 5-0 Ethicon sutures, and the animals were allowed to recover on a heating pad. After 5-7 days, the animals were ready for study.
Five days after surgery, the rats were anesthetized and perfused with saline followed by 4% PFA. […] Sections were then examined under a microscope (Leica DM4000B, Leica Microsystem Inc., Buffalo Grove, Ill., USA) equipped for fluorescence (DFC7000T), and images of the stained mouse whole brain sections were acquired with the same exposure time. […]

[3] = tested on: myelin; assay: In vitro tissue staining and fluorescent intensity ratio, mouse brain sections (Example 1); type: binding; details: 1 mM staining solution, 25 min
Method: Wild-type mice (20-22 g, 8 weeks old) were deeply anesthetized and perfused transcardially with precooled saline (4° C., 10 mL/min for 1 min followed by 7 mL/min for 6 min) followed by fixation with precooled 4% PFA in PBS (4° C., 10 mL/min for 1 min followed by 7 mL/min for 6 min). Brain tissues were then removed, postfixed by immersion in 4% PFA overnight, dehydrated in 10%, 20%, and 30% sucrose solution, embedded in a freezing compound (OCT, Fisher Scientific, Suwanee, Ga.), and sectioned at […] with a cryostat (Thermo HM525, Thermo Fisher Scientific Inc., Chicago, Ill., USA). […] Sections were then examined under a microscope (Leica DM4000B, Leica Microsystem Inc., Buffalo Grove, Ill., USA) equipped for fluorescence (DFC7000T), and images of the stained mouse whole brain sections were acquired with the same exposure time. ImageJ software was then used to quantify pixel intensity values on 6 sections of each tested compound. […] Images were analyzed by two experienced individuals. The FIR of white matter to gray matter were then calculated.
In vitro Staining and Assay of the Fluorescent Intensity. […] Next, we selected a representative region in the genus of the corpus callosum (gcc) and a representative region in the subcortical gray matter (cortex) and calculated the fluorescent intensity ratio (FIR) between both regions (FIG. 2A). […]

[4] = tested on: myelin; assay: Quantitative microPET/CT imaging in WT rats (Example 2); type: in vivo, rat
Method: (§1) For better anatomic localization, CT coregistration was applied.
Following radiosynthesis, the pharmacokinetic profile of [^18F]21 was fully characterized by quantitative microPET/CT imaging in WT rats (n=3). […] The brain radioactivity peaked at 3 min postinjection followed by rapid clearance before reaching a plateau at 40-60 min postinjection.

[5] = tested on: myelin; assay: Quantitative microPET/CT imaging in Shiverer and WT mice; type: in vivo, mouse; details: SUVs from 40 to 60 min
Method: as §1
To further evaluate the in vivo binding specificity of [^18F]21, we investigated the pharmacokinetic profiles of [^18F] 21 in a Shiverer mouse model that is deficient in myelin in the brain. Thus, the pharmacokinetic profiles of [^18F]21 were quantitatively compared between Shiverer mice (C3Fe.SWV-Mbpshi/J, n=2) and age-matched WT mice (CB57J, n=2).
Dynamic emission scans were acquired for 60 min in 3D list mode immediately after [^18F]21 (0.3 mCi each mouse, 11.1 MBq) was administered. The brain uptake of [^18F]21 was lower in the Shiverer brain than in the WT littermates (1.25 vs 1.64). After the brain concentration of [^18F]21 reached a plateau, the SUVs from 40 to 60 min were summarized and compared.

[6] = tested on: myelin; assay: Quantitative microPET/CT imaging of spinal cord, rat SCI model; type: in vivo
Method: Sprague-Dawley female rats (220-250 g, 8 weeks old) were anesthetized and a restricted laminectomy was conducted to expose the dorsal surface of T13. The vertebral column between T12 and L1 was then stabilized with clamps and forceps fixed to the base of an Infinite Horizon impact device. The midpoint of T13 was impacted with a force of 250 kDyn using a 2.5 mm stainless steel impactor tip, which was used to induce a moderately severe contusive injury to the spinal cord. The musculature was then sutured over the laminectomy site and the skin closed with wound clips followed by subsequent treatment with Marcaine at the incision site. The force/displacement graph was used to monitor impact consistency. After surgery, the animals were carefully monitored daily for pain and body weight with manual bladder expression 2-3 times daily to stimulate reflex voiding until the animals could urinate independently.
as §1
So far, imaging of the spinal cord remains a great challenge. […] Next, we asked whether [18F]21 PET is capable of in vivo imaging of myelin deficiency or myelin damage in living animal models. We conducted [^18F]21-PET imaging in a rat model of thoracic contusive SCI. In this model, the contusion was made at T13 to introduce demyelination. In vivo [^18F]21 PET imaging was performed before (as a baseline scan) and 1 day after contusion. The uptake of [^18F]21 in every spine segment was then normalized to the average spine uptake. […] After microPET/CT imaging, we conducted in situ histological staining of the spinal cord 60 min after injection of nonlabeled compound 21 through the tail vein.

[7] = tested on: myelin; assay: In situ autoradiography of mouse brain (Example 2); type: in vivo; details: mouse brain coronal sections
Method: Wild-type mice were euthanized at 30 min post iv injection of [^18F]21 (111 MBq, 3.0 mCi). The brains were rapidly removed, placed in OCT embedding medium, and frozen at −20° C. After reaching equilibrium at this temperature, the brains were coronally sectioned at 60 μm on a cryostat and mounted on superfrost slides. After drying by air at room temperature, the slides were put in a cassette and exposed for 20 min to film to obtain images.
To validate the PET results and confirm that the PET signals were indeed from specific binding to myelin, we conducted ex vivo autoradiography in the mouse brain following administration of [^18F]21 through tail vein injections. After 1 h, the mouse brain was dissected for coronal tissue sectioning. […] Thus, combination of in situ autoradiography and PET imaging confirmed that [^18F]21 binds specifically to myelin in vivo.

CNc1ccc(/C=C/c2ccc(NCc3cn(CCF)nn3)cc2)cc1 [Compound 21, (E)-N-((1-(2-Fluoroethyl)-1H-1,2,3-triazol-4-yl)methyl)-4-(4-(methylamino)styryl)aniline]
brain and spinal cord entry and myelin binding in situ [1]: readily entered the brain and spinal cord and localized in all the myelinated regions in proportion to the myelin content | brain and spinal cord entry and myelin binding in situ ([1]; listed as TAFDAS): readily penetrates the BBB and binds to myelin membranes in the brain and spinal cord | detection of demyelinated lesion by fluorescent staining [2]: capable of detecting the demyelinated focal lesion by fluorescent staining

CNc1ccc(/C=C/c2ccc(N)c(OCCF)c2)cc1 [Compound 32, (E)-4-(4-Amino-3-(2-fluoroethoxy)styryl)-N-methylaniline]
fluorescent intensity ratio (FIR) white matter (gcc) vs gray matter (cortex) [3]: > 2

CC(C)Nc1ccc(/C=C/c2ccc(N)c(OCCF)c2)cc1 [Compound 35, (E)-4-(4-Amino-3-(2-fluoroethoxy)styryl)-N-isopropylaniline]
fluorescent intensity ratio (FIR) white matter (gcc) vs gray matter (cortex) [3]: > 2

CNc1ccc(/C=C/c2ccc(NCc3cn(CC[18F])nn3)cc2)cc1 [[^18F]21]
uptake in the brain [4]: high uptake in the brain | time of peak brain radioactivity ([4]; postinjection): 3 min | uptake at 40-60 min, Shiverer vs control [5]: significantly decreased compared to the control mouse brain | uptake at L1 normalized to average spine uptake ([6]; 1 day post-T13 contusion): 1.08 | uptake at T12 normalized to average spine uptake ([6]; 1 day post-T13 contusion): 0.99 | uptake at T13 normalized to average spine uptake ([6]; 1 day post-T13 contusion (SCI group)): 0.81 | uptake at L1 normalized to average spine uptake ([6]; before contusion (baseline)): 1.05 | uptake at T12 normalized to average spine uptake ([6]; before contusion (baseline)): 0.99 | uptake at T13 normalized to average spine uptake ([6]; before contusion (baseline)): 1.02 | labeling in ex vivo autoradiography [7]: distinctly labeled the corpus callosum
